17 compounds from US8044079B2, “Substituted oxindole derivatives, medicaments containing said derivatives and use thereof” (Abbott GmbH & Co. KG, priority 2005, dated 2011) can be followed below.

For this assay, the target named is T1, human vasopressin V1b receptor (Homo sapiens, UniProt P47901).
T1 construct: expressed in transfected cells; host or cells: CHO-K1 (cell line hV1b_3H2_CHO), membrane preparation
T1 sequence (P47901 1-424): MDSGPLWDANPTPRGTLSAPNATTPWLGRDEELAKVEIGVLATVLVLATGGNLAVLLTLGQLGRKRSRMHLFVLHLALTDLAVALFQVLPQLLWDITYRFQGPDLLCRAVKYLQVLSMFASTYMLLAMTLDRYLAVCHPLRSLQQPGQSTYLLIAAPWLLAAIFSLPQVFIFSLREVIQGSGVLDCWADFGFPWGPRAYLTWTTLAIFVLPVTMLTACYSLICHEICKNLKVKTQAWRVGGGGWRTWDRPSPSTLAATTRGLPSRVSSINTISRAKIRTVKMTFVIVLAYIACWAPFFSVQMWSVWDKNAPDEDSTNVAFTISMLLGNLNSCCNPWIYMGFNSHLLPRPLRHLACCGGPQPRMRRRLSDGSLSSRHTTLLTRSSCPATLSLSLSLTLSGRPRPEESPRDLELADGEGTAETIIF
As to the kind of experiment: Vasopressin V1b receptor binding test. To be noted: membranes of CHO-K1 cells with human V1b receptor, displacement of 1.5 nM 3H-AVP; for compounds with more than one stereogenic center the diastereomer with greater affinity. The essentials: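 Affinity constants (Ki) came from nonlinear regression of triplicate scintillation counts after filtration separated bound from free radioligand. Compounds competed at human V1b membranes for 60 min, room temperature, in pH 7.4 tris/MgCl2/BSA buffer with 2% DMSO; 1 μM AVP defined nonspecific binding.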

Usually Ki stands for the equilibrium dissociation constant of an inhibitor or competing ligand from its target. Read a low Ki as a stronger hold on the target.

Compound `CNCc1ccc(OC)c(C2(N3C[C@H](O)C[C@H]3c3ncco3)C(=O)N(S(=O)(=O)c3ccc(OC)cc3)c3ccc(C#N)cc32)c1` (stereo partly drawn) [Example 163, 5-Cyano-3-((2S,4R)-4-hydroxy-2-oxazol-2-yl-pyrrolidin-1-yl)-1-(4-methoxybenzenesulfonyl)-3-(2-methoxy-5-methylaminomethylphenyl)-1,3-dihydroindol-2-one] had a Ki of under 10 nM.
As for `COc1ccc(S(=O)(=O)N2C(=O)C(c3cc(CN4CCN(C)CC4)cnc3OC)(N3CCC[C@H]3c3ncco3)c3cc(Cl)ccc32)cc1` (stereo partly drawn) [Example 164, 5-Chloro-1-(4-methoxybenzenesulfonyl)-3-[2-methoxy-5-(4-methylpiperazin-1-ylmethyl)pyridin-3-yl]-3-((S)-2-oxazol-2-yl-pyrrolidin-1-yl)-1,3-dihydroindol-2-one], the inhibition constant Ki is under 10 nM.
Compound `COc1ccc(S(=O)(=O)N2C(=O)C(c3ccc(CN4CCN(C)CC4)cc3OC)(N3C[C@H](O)C[C@H]3c3ncco3)c3cc(Cl)ccc32)cc1` (stereo partly drawn) [Example 165, 5-Chloro-3-((2S,4R)-4-hydroxy-2-oxazol-2-yl-pyrrolidin-1-yl)-1-(4-methoxybenzenesulfonyl)-3-[2-methoxy-4-(4-methylpiperazin-1-ylmethyl)phenyl]-1,3-dihydroindol-2-one] showed an inhibition constant Ki of under 10 nM.
As for `COc1ccc(S(=O)(=O)N2C(=O)C(c3ccc(CN4CCN(C(C)C)CC4)cc3OC)(N3C[C@H](O)C[C@H]3c3ncco3)c3cc(Cl)ccc32)cc1` (stereo partly drawn) [Example 166, 5-Chloro-3-((2S,4R)-4-hydroxy-2-oxazol-2-yl-pyrrolidin-1-yl)-3-[4-(4-isopropylpiperazin-1-ylmethyl)-2-methoxyphenyl]-1-(4-methoxybenzenesulfonyl)-1,3-dihydroindol-2-one], the Ki is under 10 nM.
The compound `CNCc1cnc(OC)c(C2(N3CCC[C@H]3c3ncco3)C(=O)N(S(=O)(=O)c3ccc(OC)cc3)c3ccc(Cl)cc32)c1` (stereo partly drawn) [Example 167, 5-Chloro-1-(4-methoxybenzenesulfonyl)-3-(2-methoxy-5-methylaminomethylpyridin-3-yl)-3-((S)-2-oxazol-2-yl-pyrrolidin-1-yl)-1,3-dihydroindol-2-one] showed an inhibitory constant (Ki) of under 10 nM.
`COc1ccc(S(=O)(=O)N2C(=O)C(c3cc(CNC4CC4)ccc3OC)(N3CCC[C@H]3c3ncco3)c3cc(Cl)ccc32)cc1` (stereo partly drawn) [Example 168, 5-Chloro-3-(5-cyclopropylaminomethyl-2-methoxyphenyl)-1-(4-methoxybenzenesulfonyl)-3-((S)-2-oxazol-2-yl-pyrrolidin-1-yl)-1,3-dihydroindol-2-one] gave a Ki of under 10 nM.
The compound `COc1ccc(S(=O)(=O)N2C(=O)C(c3ccc(CN4CCCCC4)cc3OC)(N3C[C@H](O)C[C@H]3c3ncco3)c3cc(Cl)ccc32)cc1` (stereo partly drawn) [Example 169, 5-Chloro-3-((2S,4R)-4-hydroxy-2-oxazol-2-yl-pyrrolidin-1-yl)-1-(4-methoxybenzenesulfonyl)-3-(2-methoxy-4-piperidin-1-ylmethylphenyl)-1,3-dihydroindol-2-one] registered a Ki of under 10 nM.
On to `CCN(C)Cc1ccc(C2(N3C[C@H](O)C[C@H]3c3ncco3)C(=O)N(S(=O)(=O)c3ccc(OC)cc3)c3ccc(Cl)cc32)c(OC)c1` (stereo partly drawn) [Example 170, 5-Chloro-3-{4-[(ethylmethylamino)methyl]-2-methoxyphenyl}-3-((2S,4R)-4-hydroxy-2-oxazol-2-yl-pyrrolidin-1-yl)-1-(4-methoxybenzenesulfonyl)-1,3-dihydroindol-2-one], for which the inhibition constant Ki is under 10 nM.
`COc1ccc(CN2CCN(C)CC2)cc1C1(N2CCC[C@H]2c2ncco2)C(=O)N(S(=O)(=O)c2cccs2)c2ccc(Cl)cc21` (stereo partly drawn) [Example 171, 5-Chloro-3-[2-methoxy-5-(4-methylpiperazin-1-ylmethyl)phenyl]-3-((S)-2-oxazol-2-yl-pyrrolidin-1-yl)-1-(thiophene-2-sulfonyl)-1,3-dihydroindol-2-one] registered an inhibition constant Ki of 10 to 100 nM.
The compound `COc1ccc(S(=O)(=O)N2C(=O)C(c3ccc(CN(C)C)cc3OC)(N3C[C@H](O)C[C@H]3c3ncco3)c3cc(C#N)ccc32)cc1` (stereo partly drawn) [Example 172, 5-Cyano-3-(4-dimethylaminomethyl-2-methoxyphenyl)-3-((2S,4R)-4-hydroxy-2-oxazol-2-yl-pyrrolidin-1-yl)-1-(4-methoxybenzenesulfonyl)-1,3-dihydroindol-2-one] yielded a Ki of 10 to 100 nM.
With `COc1ccc(S(=O)(=O)N2C(=O)C(c3cc(CN4CCN(C)CC4)ccc3F)(N3CCC[C@H]3c3ncco3)c3cc(Cl)ccc32)cc1` (stereo partly drawn) [Example 173, 5-Chloro-3-[2-fluoro-5-(4-methylpiperazin-1-ylmethyl)phenyl]-1-(4-methoxybenzenesulfonyl)-3-((S)-2-oxazol-2-yl-pyrrolidin-1-yl)-1,3-dihydroindol-2-one] the figure was 10 to 100 nM.
Compound `COc1ccc(S(=O)(=O)N2C(=O)C(c3cc(CN(C)C)ccc3F)(N3CCC[C@H]3c3ncco3)c3cc(Cl)ccc32)cc1` (stereo partly drawn) [Example 174, 5-Chloro-3-(5-dimethylaminomethyl-2-fluorophenyl)-1-(4-methoxybenzenesulfonyl)-3-((S)-2-oxazol-2-yl-pyrrolidin-1-yl)-1,3-dihydroindol-2-one] displayed a Ki of 10 to 100 nM.
In turn, `COc1ccc(S(=O)(=O)N2C(=O)C(c3cc(CNC(C)C)ccc3F)(N3CCC[C@H]3c3ncco3)c3cc(Cl)ccc32)cc1` (stereo partly drawn) [Example 175, 5-Chloro-3-[2-fluoro-5-(isopropylaminomethyl)phenyl]-1-(4-methoxybenzenesulfonyl)-3-((S)-2-oxazol-2-yl-pyrrolidin-1-yl)-1,3-dihydroindol-2-one] had a Ki of 10 to 100 nM.
`CCNCc1ccc(F)c(C2(N3CCC[C@H]3c3ncco3)C(=O)N(S(=O)(=O)c3ccc(OC)cc3)c3ccc(Cl)cc32)c1` (stereo partly drawn) [Example 176, 5-Chloro-3-(5-ethylaminomethyl-2-fluorophenyl)-1-(4-methoxybenzenesulfonyl)-3-((S)-2-oxazol-2-yl-pyrrolidin-1-yl)-1,3-dihydroindol-2-one] displayed an inhibition constant (Ki) of 10 to 100 nM.
Consider `CCCNCc1ccc(OC)c(C2(N3C[C@H](O)C[C@H]3c3ncco3)C(=O)N(S(=O)(=O)c3ccc(OC)cc3)c3ccc(C#N)cc32)c1` (stereo partly drawn) [Example 177, 5-Cyano-3-((2S,4R)-4-hydroxy-2-oxazol-2-yl-pyrrolidin-1-yl)-1-(4-methoxybenzenesulfonyl)-3-(2-methoxy-5-propylaminomethylphenyl)-1,3-dihydroindol-2-one], for which the Ki was under 10 nM.
Take `COc1ccc(S(=O)(=O)N2C(=O)C(c3ccc(CN4CCN(C)CC4)cc3OC)(N3C[C@H](O)C[C@H]3c3ncco3)c3cc(C#N)ccc32)cc1` (stereo partly drawn) [Example 178, 5-Cyano-3-((2S,4R)-4-hydroxy-2-oxazol-2-yl-pyrrolidin-1-yl)-1-(4-methoxybenzenesulfonyl)-3-[2-methoxy-4-(4-methylpiperazin-1-ylmethyl)phenyl]-1,3-dihydroindol-2-one]: the inhibition constant Ki is under 10 nM.
On to `CCN1CCN(Cc2ccc(C3(N4C[C@H](O)C[C@H]4c4ncco4)C(=O)N(S(=O)(=O)c4ccc(OC)cc4)c4ccc(C#N)cc43)c(OC)c2)CC1` (stereo partly drawn) [Example 179, 5-Cyano-3-[4-(4-ethylpiperazin-1-ylmethyl)-2-methoxyphenyl]-3-((2S,4R)-4-hydroxy-2-oxazol-2-yl-pyrrolidin-1-yl)-1-(4-methoxybenzenesulfonyl)-1,3-dihydroindol-2-one], for which the Ki is under 10 nM.
